Converted amounts (≈) assume the structure as drawn.
Tests used:
Experiment in all cases: Agar dilution MIC
[1] = test system: Actinomyces odontolyticus; type: cell-based; conditions: Schaalia odontolytica, 10 isolates
[2] = test system: Actinomyces israelii; type: cell-based; conditions: 6 isolates
[3] = test system: Anaerobiospirillum thomasii; type: cell-based; conditions: 13 isolates
[4] = test system: Anaerobiospirillum succiniciproducens; type: cell-based; conditions: 3 isolates
[5] = test system: Bacteroides gracilis; type: cell-based, Bacteroides gracilis (Campylobacter gracilis); conditions: Campylobacter gracilis, 11 isolates
[6] = test system: Bacteroides tectum; type: cell-based; conditions: Bacteroides pyogenes, 22 isolates
[7] = test system: Bacteroides ureolyticus; type: cell-based; conditions: 17 isolates
[8] = test system: Clostridium clostridioforme; type: cell-based; conditions: 11 isolates
[9] = test system: Clostridium dfficile; type: cell-based, Clostridium difficile; conditions: 14 isolates
[10] = test system: Clostridium inocuum; type: cell-based, Clostridium innocuum; conditions: 11 isolates
[11] = test system: Clostridium ramosum; type: cell-based; conditions: 10 isolates
[12] = test system: Fusobacterium spp group 1; type: cell-based; conditions: Fusobacterium, 19 isolates
[13] = test system: Fusobacterium spp. group 2; type: cell-based, Fusobacterium mortiferum, necrogenes, ulcerans; conditions: Fusobacterium, 12 isolates
[14] = test system: Fusobacterium russii; type: cell-based; conditions: Fusobacterium russii; read-out: Minimal Inhibitory Concentration 90% (MIC90)
[15] = test system: Fusobacterium varium; type: cell-based; conditions: Fusobacterium varium, 17 isolates
[16] = test system: Peptostreptococcus asaccharolyticus; type: cell-based; conditions: Peptoniphilus asaccharolyticus, 11 isolates
[17] = test system: Peptostreptococcus magnus; type: cell-based; conditions: 13 isolates
[18] = test system: Peptostreptococcus micros; type: cell-based; conditions: 12 isolates
[19] = test system: Peptostreptococcus prevotii; type: cell-based; conditions: Anaerococcus prevotii, read-out: Minimal Inhibitory Concentration 50% (MIC50); 9 isolates
[20] = test system: Porphyromonas asaccharolyticus; type: cell-based, Porphyromonas asaccharolytica; conditions: Porphyromonas, 11 isolates
[21] = test system: Porphyromonas canoris; type: cell-based; conditions: Porphyromonas canoris, 10 isolates
[22] = test system: Porphyromonas gingivalis; type: cell-based; conditions: Porphyromonas gingivalis, 13 isolates
[23] = test system: Porphyromonas macaccae; type: cell-based; conditions: Porphyromonas, read-out: Minimal Inhibitory Concentration 50% (MIC50); 13 isolates
[24] = test system: Porphyromonas spp.; type: cell-based, Porphyromonas cangingivalis, cansulci, circumdentaria, levii; conditions: Porphyromonas, read-out: Minimal Inhibitory Concentration 50% (MIC50); 11 isolates
[25] = test system: Prevotella bivia; type: cell-based; conditions: 21 isolates
[26] = test system: Prevotella buccae-oris group; type: cell-based; conditions: 22 isolates
[27] = test system: Prevotella heparinolytica; type: cell-based; conditions: 16 isolates
[28] = test system: Prevotella intermedia; type: cell-based; conditions: 11 isolates
[29] = test system: Prevotella melaninogenica; type: cell-based; conditions: Prevotella melaninogenica, 12 isolates
[30] = test system: Prevotella denticola/loeschii group; type: cell-based; conditions: 6 isolates
[31] = test system: Veillonella spp.; type: cell-based; conditions: 24 isolates
[32] = read-out: Minimal Inhibitory Concentration 90% (MIC90)
[33] = read-out: Minimal Inhibitory Concentration 50% (MIC50)
[34] = Clostridium, read-out: Minimal Inhibitory Concentration 90% (MIC90)

Cc1ncc([N+](=O)[O-])n1CCO [Metronidazole]
MIC90 [1, 32]: 32 µg/mL (≈ 187 µM) | MIC50 [1, 33]: 16 µg/mL (≈ 93.5 µM) | Minimal Inhibitory Concentration Range [2]: 1 to 32 µg/mL | MIC50 ([2]; Actinomyces israelii, read-out: Minimal Inhibitory Concentration 50% (MIC50)): 4 µg/mL (≈ 23.4 µM) | Minimal Inhibitory Concentration Range [3]: 1 to 4 µg/mL | MIC50 ([3]; Anaerobiospirillum thomasii, read-out: Minimal Inhibitory Concentration 50% (MIC50)): 2 µg/mL (≈ 11.7 µM) | MIC90 ([3]; Anaerobiospirillum thomasii, read-out: Minimal Inhibitory Concentration 90% (MIC90)): 4 µg/mL (≈ 23.4 µM) | Minimal Inhibitory Concentration Range [4]: 4 to 8 µg/mL | MIC50 ([4]; Anaerobiospirillum succiniciproducens, read-out: Minimal Inhibitory Concentration 50% (MIC50)): 8 µg/mL (≈ 46.7 µM) | MIC90 [5, 32]: > 32 µg/mL | MIC50 [5, 33]: 0.5 µg/mL (≈ 2.92 µM) | MIC90 [6, 32]: 0.5 µg/mL (≈ 2.92 µM) | MIC50 [6, 33]: 0.5 µg/mL (≈ 2.92 µM) | Minimal Inhibitory Concentration Range [7]: 0.06 to 2 µg/mL | MIC90 ([7]; Campylobacter ureolyticus, read-out: Minimal Inhibitory Concentration 90% (MIC90)): 1 µg/mL (≈ 5.84 µM) | MIC50 ([7]; Campylobacter ureolyticus, read-out: Minimal Inhibitory Concentration 50% (MIC50)): 0.25 µg/mL (≈ 1.46 µM) | Minimal Inhibitory Concentration Range [8]: 0.03 to 1 µg/mL | MIC90 [8, 34]: 0.5 µg/mL (≈ 2.92 µM) | Minimal Inhibitory Concentration Range [9]: 0.25 to 1 µg/mL | Minimal Inhibitory Concentration Range [10]: 0.5 to 2 µg/mL | MIC90 [10, 34]: 1 µg/mL (≈ 5.84 µM) | MIC50 ([10]; Clostridium, read-out: Minimal Inhibitory Concentration 50% (MIC50)): 0.5 µg/mL (≈ 2.92 µM) | Minimal Inhibitory Concentration Range [11]: 1 µg/mL | MIC50 ([11]; Thomasclavelia ramosa, read-out: Minimal Inhibitory Concentration 50% (MIC50)): 1 µg/mL (≈ 5.84 µM) | MIC90 ([11]; Thomasclavelia ramosa, read-out: Minimal Inhibitory Concentration 90% (MIC90)): 1 µg/mL (≈ 5.84 µM) | MIC50 ([12]; GROUP1, read-out: Minimal Inhibitory Concentration 50% (MIC50)): 0.25 µg/mL (≈ 1.46 µM) | MIC90 ([12]; GROUP1, read-out: Minimal Inhibitory Concentration 90% (MIC90)): 4 µg/mL (≈ 23.4 µM) | MIC50 [13, 33]: 0.5 µg/mL (≈ 2.92 µM) | MIC90 [13, 32]: 1 µg/mL (≈ 5.84 µM) | MIC90 [14]: 0.25 µg/mL (≈ 1.46 µM) | MIC50 [15, 33]: 1 µg/mL (≈ 5.84 µM) | MIC90 [15, 32]: 2 µg/mL (≈ 11.7 µM) | MIC50 [16, 33]: 0.5 µg/mL (≈ 2.92 µM) | MIC90 [16, 32]: 1 µg/mL (≈ 5.84 µM) | Minimal Inhibitory Concentration Range [17]: 0.25 to 2 µg/mL | MIC50 ([17]; Finegoldia magna, read-out: Minimal Inhibitory Concentration 50% (MIC50)): 0.5 µg/mL (≈ 2.92 µM) | MIC90 ([17]; Finegoldia magna, read-out: Minimal Inhibitory Concentration 90% (MIC90)): 0.5 µg/mL (≈ 2.92 µM) | Minimal Inhibitory Concentration Range [18]: 0.03 to 0.25 µg/mL | MIC50 ([18]; Parvimonas micra, read-out: Minimal Inhibitory Concentration 50% (MIC50)): 0.25 µg/mL (≈ 1.46 µM) | MIC90 ([18]; Parvimonas micra, read-out: Minimal Inhibitory Concentration 90% (MIC90)): 0.25 µg/mL (≈ 1.46 µM) | MIC50 [19]: 0.5 µg/mL (≈ 2.92 µM) | MIC50 [20, 33]: ≤ 0.015 µg/mL | MIC90 [20, 32]: ≤ 0.015 µg/mL | MIC50 [21, 33]: 0.25 µg/mL (≈ 1.46 µM) | MIC90 [21, 32]: 0.25 µg/mL (≈ 1.46 µM) | MIC50 [22, 33]: ≤ 0.015 µg/mL | MIC90 [22, 32]: 0.03 µg/mL (≈ 0.175 µM) | MIC50 [23]: 0.06 µg/mL (≈ 0.351 µM) | MIC50 [24]: 0.03 µg/mL (≈ 0.175 µM) | Minimal Inhibitory Concentration Range [25]: 0.5 to 4 µg/mL | MIC90 ([25]; Prevotella bivia, read-out: Minimal Inhibitory Concentration 90% (MIC90)): 4 µg/mL (≈ 23.4 µM) | MIC50 ([25]; Prevotella bivia, read-out: Minimal Inhibitory Concentration 50% (MIC50)): 2 µg/mL (≈ 11.7 µM) | Minimal Inhibitory Concentration Range [26]: 0.5 to 4 µg/mL | MIC90 ([26]; Prevotella, read-out: Minimal Inhibitory Concentration 90% (MIC90)): 2 µg/mL (≈ 11.7 µM) | MIC50 ([26]; Prevotella, read-out: Minimal Inhibitory Concentration 50% (MIC50)): 1 µg/mL (≈ 5.84 µM) | Minimal Inhibitory Concentration Range [27]: 0.06 to 1 µg/mL | MIC90 ([27]; Prevotella heparinolytica, read-out: Minimal Inhibitory Concentration 90% (MIC90)): 1 µg/mL (≈ 5.84 µM) | MIC50 ([27]; Prevotella heparinolytica, read-out: Minimal Inhibitory Concentration 50% (MIC50)): 0.5 µg/mL (≈ 2.92 µM) | Minimal Inhibitory Concentration Range [28]: 0.03 to 1 µg/mL | MIC90 ([28]; Prevotella intermedia, read-out: Minimal Inhibitory Concentration 90% (MIC90)): 1 µg/mL (≈ 5.84 µM) | MIC50 ([28]; Prevotella intermedia, read-out: Minimal Inhibitory Concentration 50% (MIC50)): 0.5 µg/mL (≈ 2.92 µM) | MIC90 [29, 32]: 1 µg/mL (≈ 5.84 µM) | MIC50 [29, 33]: 0.5 µg/mL (≈ 2.92 µM) | Minimal Inhibitory Concentration Range [30]: 0.5 to 1 µg/mL | MIC50 ([30]; Prevotella denticola, read-out: Minimal Inhibitory Concentration 50% (MIC50)): 1 µg/mL (≈ 5.84 µM) | Minimal Inhibitory Concentration Range [31]: 0.25 to 2 µg/mL | MIC90 ([31]; Veillonella, read-out: Minimal Inhibitory Concentration 90% (MIC90)): 2 µg/mL (≈ 11.7 µM) | MIC50 ([31]; Veillonella, read-out: Minimal Inhibitory Concentration 50% (MIC50)): 1 µg/mL (≈ 5.84 µM)

Source: US6455540B1, “Methods of use of quinolone compounds against anaerobic pathogenic bacteria” (priority 1999, dated 2002)
